Results: patent US9149056B2, “Compositions and methods relating to carotenoids” (The Iams Company, priority 2011, dated 2015)

Tests used:
Caco-2 cells = assay type: in vitro ADME; details: human, Caco-2, 4 h
Excerpt: An in vitro digestion coupled with intestinal culture model was developed to mimic the in vivo absorption of carotenoids. It is important to note that absorption as determined by in vitro digestion is highly correlated with data derived by sampling small intestinal luminal contents from human subjects fed carotenoid rich vegetables and bioavailability data from published human studies.
The interactions among beta-carotene (B), lutein (L), and astaxanthin (A) or astaxanthin ester (AE) were examined using the coupled simulated digestion/Caco-2 cell model. Cellular carotenoids after four hour incubation with micelles generated during simulated digestion of carotenoid-rich oil are presented in Table 2 below.
Simulated digestion: Non-fat yogurt (2.7 g) was homogenized in 10 mL 120 mM salt solution. The mixture was transferred to 50 mL glass test tube. Carotenoid rich oil was carefully added for each reaction (6 replicates per test oil), and total volume of oil was adjusted to 300 μL using soybean oil. The procedure for the simulated digestion followed the standard protocol (See Failla M L., Chitchumroonchokchai C. (2005) In vitro models as tools for screening the relative bioavailabilities of provitamin A carotenoids in foods. HarvestPlus Technical Monograph Series 3. 32 p. www.harvestplus.org/pdfs/tech03.pdf), except that reactions contained pancreatic enzymes and bile extract. […] After completing gastric and small intestinal digestion, an aliquot (9 ml.) of digesta was centrifuged at 12,000×g, 4° C. for 45 min. to isolate aqueous fraction containing micellar carotenoids from residual undigested materials. The aqueous fraction was passed through syringe filter (0.22 μm) to determine carotenoids that partitioned into either aqueous or micellar phase. Aliquots of digesta and aqueous fraction were stored at −20° C. for a maximum of one week before extraction. Beta-carotene and lutein was quantified according to Chitchumrronchokchai et al. (See Chitchumroonchokchai C., Schwartz S J., Failla M L. Assessment of lutein bioavailability from meals and supplement using simulated digestion and Caco-2 human intestinal cells. J Nutr. 2004; 134:2280-2286), and astaxanthin was measured as described in Lin W C et al. (Lin W C, Chien J T, Chen B H. Determination of carotenoids in spear shrimp shells (Parapenaeopsis hardwickii) by liquid chromatography. J Agric Food Chem. 2005 Jun. 29; 53(13):5144-9).
Cell uptake of carotenoids from micelles generated during digestion of oil enriched with individual carotenoids or mixtures of carotenoids: Caco-2 cells (HTB37; passages 25-28) obtained from ATCC ([…]) at passage 19 were maintained in 6-well plastic dishes. The cells were cultured in complete DMEM plus 15% heat inactivated FBS during replication phase. […]

[1] = tested on: Caco-2 human intestinal cells; assay type: in vitro ADME; details: Caco-2, 18 h
Method: The interactions among beta-carotene (B), lutein (L), and astaxanthin (A) were examined using a Caco-2 cell model.
Caco-2 human intestinal cells were grown and maintained on transwell inserts (3.0 μm pores) according to protocol in Failla M L., Chitchumroonchokchai C. (2005) In vitro models as tools for screening the relative bioavailabilities of provitamin A carotenoids in foods. HarvestPlus Technical Monograph Series 3. 32 p. www.harvestplus.org/pdfs/tech03.pdf. Cultures were used at 21 days post-confluency (dpc).
The stock synthetic micelles (SM) containing either β-carotene (B), lutein (L), or astaxanthin (A) was prepared as described by Chitchumroonchokchai et al. (2004).
Treated cells were incubated in humidified environment of 95% air, 5% CO2 at 37° C. for 18 hours before spent medium in apical chamber (AP) and basolateral medium (BL) were collected. All samples were frozen at −80° C. under nitrogen until analysis. Carotenoid analysis in media and cells were quantified as described by Chitchumroonchokchai (See Chitchumroonchokchai C., Schwartz S J., Failla M L. Assessment of lutein bioavailability from meals and supplement using simulated digestion and Caco-2 human intestinal cells. J Nutr. 2004; 134:2280-2286). Protein content of cells was determined by the bicinchoninic acid assay (Pierce—www.piercenet.com/files/1296 as8.pdf). […]

% Carotenoid Cellular Uptake, B (Caco-2 cells) [%] | % Increase in Carotenoid Cellular Uptake, B (Caco-2 cells) [%] | % Increase in Carotenoid Cellular Uptake Compared to Single Carotenoid, B [1] [%] | % Carotenoid Cellular Uptake, L (Caco-2 cells) [%] | % Increase in Carotenoid Cellular Uptake, L (Caco-2 cells) [%] | % Increase in Carotenoid Cellular Uptake Compared to Single Carotenoid, L [1] [%] | SMILES
5.70 | 0.00 | 0.00 | – | – | – | CC1=C(/C=C/C(C)=C/C=C/C(C)=C/C=C/C=C(C)/C=C/C=C(C)/C=C/C2=C(C)CCCC2(C)C)C(C)(C)CCC1 [Beta-carotene, beta-carotene]
– | – | – | 6.02 | 0.00 | 0.00 | CC1=C[C@H](O)CC(C)(C)[C@H]1/C=C/C(C)=C/C=C/C(C)=C/C=C/C=C(C)/C=C/C=C(C)/C=C/C1=C(C)C[C@@H](O)CC1(C)C [Lutein, lutein]
